Measured values taken from PubChem BioAssay (NCI).
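Assay format: 96-well plates, 48-hour exposure. At the GI50, growth is halved. The concentration for full growth arrest is given as TGI.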

Legend:
Assay in all cases: NCI tumour cell line growth inhibition, 48 h
NCI-H226 lung = test system: NCI-H226 lung
UACC-257 melanoma = test system: UACC-257 melanoma
HCC-2998 colon = test system: HCC-2998 colon
HCT-116 colon = test system: HCT-116 colon
TK-10 renal = test system: TK-10 renal
NCI-H460 lung = test system: NCI-H460 lung
RPMI-8226 leukemia = test system: RPMI-8226 leukemia
786-0 renal = test system: 786-0 renal
MOLT-4 leukemia = test system: MOLT-4 leukemia
LOX IMVI melanoma = test system: LOX IMVI melanoma
SK-MEL-28 melanoma = test system: SK-MEL-28 melanoma
OVCAR-8 ovarian = test system: OVCAR-8 ovarian
DU-145 prostate = test system: DU-145 prostate
ACHN renal = test system: ACHN renal
SF-295 CNS = test system: SF-295 CNS
K-562 leukemia = test system: K-562 leukemia
HL-60(TB) leukemia = test system: HL-60(TB) leukemia
SK-OV-3 ovarian = test system: SK-OV-3 ovarian
MCF7 breast = test system: MCF7 breast
CCRF-CEM leukemia = test system: CCRF-CEM leukemia
MALME-3M melanoma = test system: MALME-3M melanoma
A549 NSCLC = test system: A549 NSCLC
NCI/ADR-RES ovarian = test system: NCI/ADR-RES ovarian
EKVX NSCLC = test system: EKVX NSCLC
OVCAR-3 ovarian = test system: OVCAR-3 ovarian
PC-3 prostate = test system: PC-3 prostate
IGROV1 ovarian = test system: IGROV1 ovarian
HCT-15 colon = test system: HCT-15 colon
SF-539 CNS = test system: SF-539 CNS

COc1ccccc1/C=C/C(=O)/C=C/c1ccccc1OC
GI50 (NCI-H226 lung): 1.71 µM | TGI (NCI-H226 lung): 3.18 µM | GI50 (UACC-257 melanoma): 1.69 µM | TGI (UACC-257 melanoma): 3.72 µM | GI50 (HCC-2998 colon): 1.92 µM | TGI (HCC-2998 colon): 3.37 µM | GI50 (HCT-116 colon): 1.27 µM | TGI (HCT-116 colon): 2.62 µM | GI50 (TK-10 renal): 3.52 µM | TGI (TK-10 renal): 8.83 µM | GI50 (NCI-H460 lung): 2.16 µM | TGI (NCI-H460 lung): 5.64 µM | GI50 (RPMI-8226 leukemia): 2.25 µM | TGI (RPMI-8226 leukemia): 8.43 µM | GI50 (786-0 renal): 1.85 µM | TGI (786-0 renal): 3.59 µM | GI50 (MOLT-4 leukemia): 2.4 µM | TGI (MOLT-4 leukemia): 9.06 µM | GI50 (LOX IMVI melanoma): 1.53 µM | TGI (LOX IMVI melanoma): 3.01 µM | GI50 (SK-MEL-28 melanoma): 1.67 µM | TGI (SK-MEL-28 melanoma): 3.18 µM | GI50 (OVCAR-8 ovarian): 2.58 µM | TGI (OVCAR-8 ovarian): 8.88 µM | GI50 (DU-145 prostate): 1.96 µM | TGI (DU-145 prostate): 4.15 µM | GI50 (ACHN renal): 1.91 µM | TGI (ACHN renal): 3.49 µM | GI50 (SF-295 CNS): 3.74 µM | TGI (SF-295 CNS): 10.5 µM | GI50 (K-562 leukemia): 2.83 µM | TGI (K-562 leukemia): 12.4 µM | GI50 (HL-60(TB) leukemia): 2.69 µM | TGI (HL-60(TB) leukemia): 8.45 µM | GI50 (SK-OV-3 ovarian): 2.94 µM | TGI (SK-OV-3 ovarian): 8.66 µM | GI50 (MCF7 breast): 0.37 µM | TGI (MCF7 breast): 3.81 µM | GI50 (CCRF-CEM leukemia): 2.04 µM | TGI (CCRF-CEM leukemia): 9.19 µM | GI50 (MALME-3M melanoma): 2.11 µM | TGI (MALME-3M melanoma): 4.35 µM | GI50 (A549 NSCLC): 2.35 µM | TGI (A549 NSCLC): 7 µM | GI50 (NCI/ADR-RES ovarian): 2.53 µM | TGI (NCI/ADR-RES ovarian): 8.98 µM | GI50 (EKVX NSCLC): 2.42 µM | TGI (EKVX NSCLC): 6.22 µM | GI50 (OVCAR-3 ovarian): 1.68 µM | TGI (OVCAR-3 ovarian): 3.68 µM | GI50 (PC-3 prostate): 2.26 µM | TGI (PC-3 prostate): 7.03 µM | GI50 (IGROV1 ovarian): 1.6 µM | TGI (IGROV1 ovarian): 3.2 µM | GI50 (HCT-15 colon): 2.27 µM | TGI (HCT-15 colon): 10.5 µM | GI50 (SF-539 CNS): 2.82 µM | TGI (SF-539 CNS): 6.33 µM
